Reference: ChEMBL document CHEMBL1201862, “PubChem BioAssay data set” (2004)
Active and inactive are the calls of the source.

Assays:
[1] = target: Muscarinic acetylcholine receptor M3 (Homo sapiens, UniProt P20309); assay: potentiation of ACh response at M3 – cell-based, CHO-K1 hM3, Fluo-4 calcium, ACh EC20, selectivity assay for M1 PAM project, dose response (AID 2428); format: functional
[2] = target: Muscarinic acetylcholine receptor M1 (Rattus norvegicus, UniProt P08482); assay: concentration-dependent potentiation of ACh at M1 – cell-based, calcium mobilization, CHO-K1, ACh EC20, dose response (AID 2425); format: functional
Sequence of Muscarinic acetylcholine receptor M1 (P08482 whole entry): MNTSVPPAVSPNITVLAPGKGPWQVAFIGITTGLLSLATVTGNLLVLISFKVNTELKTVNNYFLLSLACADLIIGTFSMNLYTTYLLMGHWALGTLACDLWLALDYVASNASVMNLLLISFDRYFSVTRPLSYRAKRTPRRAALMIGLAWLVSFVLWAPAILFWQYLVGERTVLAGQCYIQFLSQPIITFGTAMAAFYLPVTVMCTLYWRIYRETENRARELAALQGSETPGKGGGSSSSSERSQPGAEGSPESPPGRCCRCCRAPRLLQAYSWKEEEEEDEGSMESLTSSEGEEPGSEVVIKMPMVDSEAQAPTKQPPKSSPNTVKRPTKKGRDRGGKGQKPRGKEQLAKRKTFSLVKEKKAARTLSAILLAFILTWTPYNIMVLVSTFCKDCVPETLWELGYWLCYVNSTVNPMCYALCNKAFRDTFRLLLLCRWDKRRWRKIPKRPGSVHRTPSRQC

[3] = target: Muscarinic acetylcholine receptor M4 (Rattus norvegicus, UniProt P08485); assay: potentiation of ACh calcium response at rM4 – cell-based, CHO-K1 rat M4/Gqi5, Fluo-4 calcium, ACh EC20, selectivity assay for M1 muscarinic PAM project, dose response (AID 2438); format: functional
Sequence of Muscarinic acetylcholine receptor M4 (P08485 whole entry): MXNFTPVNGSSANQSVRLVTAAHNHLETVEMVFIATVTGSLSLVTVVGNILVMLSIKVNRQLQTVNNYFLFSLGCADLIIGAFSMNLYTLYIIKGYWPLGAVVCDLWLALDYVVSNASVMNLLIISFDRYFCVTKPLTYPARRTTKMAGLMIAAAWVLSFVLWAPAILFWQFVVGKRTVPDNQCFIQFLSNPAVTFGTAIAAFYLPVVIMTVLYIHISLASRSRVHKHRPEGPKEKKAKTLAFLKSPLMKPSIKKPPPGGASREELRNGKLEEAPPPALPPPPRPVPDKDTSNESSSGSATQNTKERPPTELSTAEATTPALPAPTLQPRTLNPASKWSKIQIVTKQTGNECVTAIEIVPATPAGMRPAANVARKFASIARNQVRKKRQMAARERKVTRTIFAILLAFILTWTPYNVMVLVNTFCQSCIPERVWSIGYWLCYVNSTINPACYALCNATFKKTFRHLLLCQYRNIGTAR

[4] = target: Peroxisome proliferator-activated receptor gamma/Nuclear receptor coactivator 1 (Homo sapiens, UniProt P37231); format: functional;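 note: agonist potency as compounds enhance coactivator SRC-1 recruitment to PPARgamma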
[5] = target: T1, Mannose-6-phosphate isomerase (Homo sapiens, UniProt P34949); assay: MPI inhibition at elevated mannose 6-phosphate – biochemical, fluorescence intensity, high mannose 6-phosphate, primary screen (AID 1220)
T1 sequence (P34949 whole entry): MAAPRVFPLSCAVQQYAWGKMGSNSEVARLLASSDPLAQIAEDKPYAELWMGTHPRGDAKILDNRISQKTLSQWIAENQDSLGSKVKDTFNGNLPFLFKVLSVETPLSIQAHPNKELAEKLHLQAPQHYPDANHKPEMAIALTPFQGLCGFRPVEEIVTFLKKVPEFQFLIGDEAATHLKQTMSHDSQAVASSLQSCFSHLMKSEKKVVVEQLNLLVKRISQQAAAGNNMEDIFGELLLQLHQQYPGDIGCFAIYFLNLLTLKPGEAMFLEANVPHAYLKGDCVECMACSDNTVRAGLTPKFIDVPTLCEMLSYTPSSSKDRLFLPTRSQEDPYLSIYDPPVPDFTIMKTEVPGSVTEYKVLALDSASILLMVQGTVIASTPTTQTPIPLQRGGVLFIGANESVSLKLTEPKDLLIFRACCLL

[6] = target: Peroxisome proliferator-activated receptor gamma/Nuclear receptor coactivator 3 (Homo sapiens, UniProt P37231); format: functional;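 note: agonist potency for raising coactivator recruitment to the receptor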
[7] = target: Induced myeloid leukemia cell differentiation protein Mcl-1 (Homo sapiens, UniProt Q07820); format: functional
Sequence of Induced myeloid leukemia cell differentiation protein Mcl-1 (Q07820 whole entry): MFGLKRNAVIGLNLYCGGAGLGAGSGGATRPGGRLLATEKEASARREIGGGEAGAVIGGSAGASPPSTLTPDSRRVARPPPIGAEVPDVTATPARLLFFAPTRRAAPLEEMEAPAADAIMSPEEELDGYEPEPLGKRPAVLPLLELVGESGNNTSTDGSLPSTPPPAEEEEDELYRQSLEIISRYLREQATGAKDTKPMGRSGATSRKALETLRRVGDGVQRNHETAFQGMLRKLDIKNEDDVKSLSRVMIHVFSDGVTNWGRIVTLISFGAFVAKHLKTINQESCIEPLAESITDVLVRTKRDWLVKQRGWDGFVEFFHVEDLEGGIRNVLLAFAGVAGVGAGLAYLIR

Large T antigen = Large T antigen (Simian virus 40, UniProt P03070); format: functional, Betapolyomavirus macacae;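 note: Confirmatory-stage PubChem screen for compounds that inhibit SV40 T antigen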
Sequence of Large T antigen (P03070 whole entry): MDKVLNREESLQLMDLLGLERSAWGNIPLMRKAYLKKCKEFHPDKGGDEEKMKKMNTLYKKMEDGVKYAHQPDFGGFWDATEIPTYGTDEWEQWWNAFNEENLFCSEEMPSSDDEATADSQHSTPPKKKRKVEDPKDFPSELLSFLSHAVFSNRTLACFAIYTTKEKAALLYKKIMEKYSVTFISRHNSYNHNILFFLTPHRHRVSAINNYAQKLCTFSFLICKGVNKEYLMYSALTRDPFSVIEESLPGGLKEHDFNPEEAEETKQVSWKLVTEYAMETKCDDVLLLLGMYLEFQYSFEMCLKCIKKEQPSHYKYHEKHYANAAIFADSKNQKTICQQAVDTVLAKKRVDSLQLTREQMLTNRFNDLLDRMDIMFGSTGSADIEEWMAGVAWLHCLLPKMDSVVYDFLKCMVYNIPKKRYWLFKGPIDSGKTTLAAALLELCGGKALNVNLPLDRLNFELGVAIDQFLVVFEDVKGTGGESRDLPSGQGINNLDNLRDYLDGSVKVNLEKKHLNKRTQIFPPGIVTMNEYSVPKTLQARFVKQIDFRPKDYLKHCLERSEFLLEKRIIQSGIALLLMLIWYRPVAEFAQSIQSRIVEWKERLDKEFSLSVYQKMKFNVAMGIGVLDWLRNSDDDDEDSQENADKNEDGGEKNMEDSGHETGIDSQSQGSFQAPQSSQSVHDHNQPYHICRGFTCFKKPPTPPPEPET

[8] = target: Peroxisome proliferator-activated receptor gamma/Nuclear receptor coactivator 2 (Homo sapiens, UniProt P37231); format: functional;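 note: agonist potency for raising coactivator recruitment to the receptor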
NADPH oxidase 1 = target: T2, NADPH oxidase 1 (Homo sapiens, UniProt Q9Y5S8); assay: Luminescence-based cell-based dose response assay to identify inhibitors of NADPH oxidase 1 (NOX1).; format: functional
T2 sequence (Q9Y5S8 whole entry): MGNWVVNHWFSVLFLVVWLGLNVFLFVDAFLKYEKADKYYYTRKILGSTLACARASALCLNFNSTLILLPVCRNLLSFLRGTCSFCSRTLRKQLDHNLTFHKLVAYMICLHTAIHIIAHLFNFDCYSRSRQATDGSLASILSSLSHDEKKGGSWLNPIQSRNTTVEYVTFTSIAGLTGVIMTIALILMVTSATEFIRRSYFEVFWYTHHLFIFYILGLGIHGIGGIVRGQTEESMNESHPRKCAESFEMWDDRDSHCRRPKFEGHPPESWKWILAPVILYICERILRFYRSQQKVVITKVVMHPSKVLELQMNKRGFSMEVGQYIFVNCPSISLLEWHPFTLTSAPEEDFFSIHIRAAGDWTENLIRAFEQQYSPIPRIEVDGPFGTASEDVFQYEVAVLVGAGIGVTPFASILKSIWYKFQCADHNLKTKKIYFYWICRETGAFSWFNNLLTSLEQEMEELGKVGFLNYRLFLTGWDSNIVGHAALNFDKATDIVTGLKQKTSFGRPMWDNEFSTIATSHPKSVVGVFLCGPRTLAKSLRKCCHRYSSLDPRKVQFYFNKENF

[9] = target: Epstein-Barr nuclear antigen 1 (Epstein-Barr virus (strain B95-8) (HHV-4) (Human herpesvirus 4), UniProt P03211); assay: inhibition of EBV nuclear antigen 1 DNA binding – biochemical, fluorescence polarization, 1536-well, dose response (AID 2381); design: species or system human gammaherpesvirus 4;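 note: fluorescence polarization of a Cy5 DNA probe bound by EBNA-1 protein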
Sequence of Epstein-Barr nuclear antigen 1 (P03211 whole entry): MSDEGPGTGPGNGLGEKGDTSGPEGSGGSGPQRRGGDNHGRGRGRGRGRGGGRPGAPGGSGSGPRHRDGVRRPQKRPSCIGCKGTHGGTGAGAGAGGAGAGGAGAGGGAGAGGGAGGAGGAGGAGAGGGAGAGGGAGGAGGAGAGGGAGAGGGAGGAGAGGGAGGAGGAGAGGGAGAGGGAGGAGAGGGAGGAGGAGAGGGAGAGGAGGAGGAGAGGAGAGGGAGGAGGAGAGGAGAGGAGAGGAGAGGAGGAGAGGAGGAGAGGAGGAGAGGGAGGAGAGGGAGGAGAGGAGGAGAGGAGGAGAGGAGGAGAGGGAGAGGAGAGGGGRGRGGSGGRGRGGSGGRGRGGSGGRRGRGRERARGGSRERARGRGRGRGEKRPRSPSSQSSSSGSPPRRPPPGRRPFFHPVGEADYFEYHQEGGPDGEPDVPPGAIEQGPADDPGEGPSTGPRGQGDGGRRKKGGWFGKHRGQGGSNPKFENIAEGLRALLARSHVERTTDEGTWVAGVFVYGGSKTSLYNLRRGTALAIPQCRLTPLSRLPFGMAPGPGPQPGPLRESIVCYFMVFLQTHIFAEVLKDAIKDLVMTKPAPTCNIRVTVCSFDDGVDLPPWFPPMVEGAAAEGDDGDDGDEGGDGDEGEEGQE

[10] = target: Lytic switch protein BZLF1 (Epstein-Barr virus (strain B95-8) (HHV-4) (Human herpesvirus 4), UniProt P03206); assay: inhibition of BZLF1 ZTA DNA binding – biochemical, fluorescence polarization, Epstein-Barr virus, 1536-well, counter-screen for EBNA-1 inhibitor project, dose response (AID 2377); design: species or system human gammaherpesvirus 4;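 note: fluorescence polarization of Cy5-labelled ZRE DNA probe bound by purified Zta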
Sequence of Lytic switch protein BZLF1 (P03206 whole entry, the tested form may be a part): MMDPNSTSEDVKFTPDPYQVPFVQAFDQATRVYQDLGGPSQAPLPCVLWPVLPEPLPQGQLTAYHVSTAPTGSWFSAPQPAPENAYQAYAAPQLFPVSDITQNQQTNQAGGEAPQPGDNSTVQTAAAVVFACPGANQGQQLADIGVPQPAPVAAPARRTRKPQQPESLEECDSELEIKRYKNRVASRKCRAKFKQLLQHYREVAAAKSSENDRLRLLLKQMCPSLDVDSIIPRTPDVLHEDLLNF

Estrogen receptor = Estrogen receptor (Homo sapiens, UniProt P03372); assay: ERα coactivator recruitment enhancers – biochemical, TR-FRET, ERα LBD, dose response (AID 737)
Sequence of Estrogen receptor (P03372 whole entry, the tested form may be a part): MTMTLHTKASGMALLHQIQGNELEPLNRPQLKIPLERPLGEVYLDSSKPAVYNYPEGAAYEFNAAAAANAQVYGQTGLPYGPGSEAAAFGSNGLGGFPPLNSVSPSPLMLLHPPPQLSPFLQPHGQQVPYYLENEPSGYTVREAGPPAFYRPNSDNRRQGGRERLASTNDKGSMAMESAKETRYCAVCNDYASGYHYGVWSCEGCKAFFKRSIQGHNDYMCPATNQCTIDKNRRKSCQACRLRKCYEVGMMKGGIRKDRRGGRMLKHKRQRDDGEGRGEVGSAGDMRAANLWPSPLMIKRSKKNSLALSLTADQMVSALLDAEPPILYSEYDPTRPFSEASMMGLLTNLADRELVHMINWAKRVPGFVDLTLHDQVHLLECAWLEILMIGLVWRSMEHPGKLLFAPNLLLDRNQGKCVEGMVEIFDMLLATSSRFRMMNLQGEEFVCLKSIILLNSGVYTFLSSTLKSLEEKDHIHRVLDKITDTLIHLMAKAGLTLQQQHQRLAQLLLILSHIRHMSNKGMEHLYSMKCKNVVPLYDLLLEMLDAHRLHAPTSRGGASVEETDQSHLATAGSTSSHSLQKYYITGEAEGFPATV

[11] = target: T3, Replicative DNA helicase DnaB (Mycobacterium tuberculosis, UniProt P9WMR3); assay: DnaB intein splicing inhibitors, dose response, biochemical, cell-free fluorescence (AID 449749); format: functional
T3 sequence (P9WMR3 whole entry): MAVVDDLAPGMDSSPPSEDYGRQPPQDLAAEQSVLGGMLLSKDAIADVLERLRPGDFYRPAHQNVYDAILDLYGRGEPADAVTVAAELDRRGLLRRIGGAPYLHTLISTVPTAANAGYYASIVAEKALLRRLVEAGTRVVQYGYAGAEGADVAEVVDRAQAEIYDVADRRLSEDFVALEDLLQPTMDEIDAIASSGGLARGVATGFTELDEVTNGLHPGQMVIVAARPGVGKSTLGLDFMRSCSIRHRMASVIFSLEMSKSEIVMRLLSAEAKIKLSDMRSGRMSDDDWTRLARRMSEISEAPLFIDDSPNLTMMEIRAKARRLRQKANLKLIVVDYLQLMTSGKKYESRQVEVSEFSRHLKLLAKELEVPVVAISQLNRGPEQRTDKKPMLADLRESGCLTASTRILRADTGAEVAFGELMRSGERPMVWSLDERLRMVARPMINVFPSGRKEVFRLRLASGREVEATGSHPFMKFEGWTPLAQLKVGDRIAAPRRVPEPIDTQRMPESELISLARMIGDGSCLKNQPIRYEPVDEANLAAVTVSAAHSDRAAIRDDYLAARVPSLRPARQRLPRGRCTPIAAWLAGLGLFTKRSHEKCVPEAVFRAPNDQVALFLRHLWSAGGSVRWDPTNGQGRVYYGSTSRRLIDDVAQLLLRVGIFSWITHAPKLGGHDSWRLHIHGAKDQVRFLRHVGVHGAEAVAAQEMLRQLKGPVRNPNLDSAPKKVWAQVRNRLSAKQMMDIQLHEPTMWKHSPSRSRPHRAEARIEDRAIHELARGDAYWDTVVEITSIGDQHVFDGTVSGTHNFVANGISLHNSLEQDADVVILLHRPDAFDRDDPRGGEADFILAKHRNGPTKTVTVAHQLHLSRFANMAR

Protein RecA = target: T4, Protein RecA (Mycobacterium tuberculosis, UniProt P9WHJ3); assay: Fluorescence Cell-Free Homogeneous Dose Retest to Identify Inhibitors of RecA-Intein Splicing Activity. [Related pubchem assays (depositor defined):AID2097, AID2223, AID489010, AID492950]; format: functional
T4 sequence (P9WHJ3 whole entry): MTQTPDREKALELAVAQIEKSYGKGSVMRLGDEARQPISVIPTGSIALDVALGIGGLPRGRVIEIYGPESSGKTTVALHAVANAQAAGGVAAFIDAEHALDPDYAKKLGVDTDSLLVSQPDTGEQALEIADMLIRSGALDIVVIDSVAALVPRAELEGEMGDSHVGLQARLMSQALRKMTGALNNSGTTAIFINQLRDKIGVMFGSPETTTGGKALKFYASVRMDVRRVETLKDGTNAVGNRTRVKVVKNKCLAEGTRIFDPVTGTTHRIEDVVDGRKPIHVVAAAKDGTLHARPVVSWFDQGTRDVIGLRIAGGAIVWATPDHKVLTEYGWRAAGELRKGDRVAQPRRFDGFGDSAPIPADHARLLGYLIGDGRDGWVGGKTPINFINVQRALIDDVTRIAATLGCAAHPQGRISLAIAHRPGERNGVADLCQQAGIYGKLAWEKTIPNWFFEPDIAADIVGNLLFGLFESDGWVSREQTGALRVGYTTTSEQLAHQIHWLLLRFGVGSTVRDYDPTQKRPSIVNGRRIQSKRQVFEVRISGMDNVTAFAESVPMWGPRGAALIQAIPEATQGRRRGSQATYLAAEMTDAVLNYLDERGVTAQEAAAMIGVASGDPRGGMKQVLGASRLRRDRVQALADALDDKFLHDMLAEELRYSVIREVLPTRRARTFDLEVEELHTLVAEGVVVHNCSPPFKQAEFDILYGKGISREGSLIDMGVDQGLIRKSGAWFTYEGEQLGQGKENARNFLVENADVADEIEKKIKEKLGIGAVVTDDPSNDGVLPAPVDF

[12] = target: T5, Zinc finger protein mex-5 (Caenorhabditis elegans, UniProt Q9XUB2); assay: potency of MEX-5 RNA-binding blockers – biochemical, C. elegans, fluorescence polarization, dose response (AID 1960)
T5 sequence (Q9XUB2 whole entry): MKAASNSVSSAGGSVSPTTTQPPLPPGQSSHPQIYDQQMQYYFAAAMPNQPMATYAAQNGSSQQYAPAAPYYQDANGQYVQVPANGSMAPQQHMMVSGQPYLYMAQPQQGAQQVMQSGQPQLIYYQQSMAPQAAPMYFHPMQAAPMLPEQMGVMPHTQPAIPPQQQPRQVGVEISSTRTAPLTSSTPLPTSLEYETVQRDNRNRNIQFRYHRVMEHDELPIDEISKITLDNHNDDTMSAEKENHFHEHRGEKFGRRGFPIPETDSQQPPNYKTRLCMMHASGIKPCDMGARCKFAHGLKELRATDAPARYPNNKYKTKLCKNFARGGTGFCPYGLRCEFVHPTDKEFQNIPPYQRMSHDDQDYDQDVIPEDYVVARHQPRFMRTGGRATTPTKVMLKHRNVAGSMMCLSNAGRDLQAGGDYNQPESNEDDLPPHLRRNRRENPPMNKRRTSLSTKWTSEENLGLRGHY

[13] = antiviral protection against BTV-induced cell death – arbovirus, BSR cells, confirmation (AID 1250); format: functional;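 note: protection from viral cytopathic effect measured as cell viability by ATP luminescence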
[14] = target: T6, RNA-binding protein pos-1 (Caenorhabditis elegans, UniProt G5EF15); assay: disruptors of C. elegans POS-1 RNA interaction – biochemical, fluorescence polarization, dose response (AID 1964);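 note: purified POS-1 fused to maltose binding protein made in E. coli; potency of compounds blocking POS-1 binding to fluorescent RNA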
T6 sequence (G5EF15 whole entry): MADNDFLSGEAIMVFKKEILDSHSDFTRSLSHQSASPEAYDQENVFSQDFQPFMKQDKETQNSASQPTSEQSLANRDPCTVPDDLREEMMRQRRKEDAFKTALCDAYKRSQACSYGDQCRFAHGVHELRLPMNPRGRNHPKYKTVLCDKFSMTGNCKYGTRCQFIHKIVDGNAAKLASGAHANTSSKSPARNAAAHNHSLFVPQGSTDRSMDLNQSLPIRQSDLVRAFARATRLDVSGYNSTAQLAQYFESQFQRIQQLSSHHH

[15] = target: T7, Neuropeptide Y receptor type 2 (Homo sapiens, UniProt P49146); format: functional, cell-based;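 note: HEK293 cells expressing the receptor and a CNG channel; stimulus was NPY near EC95 followed by isoproterenol to raise cAMP; antagonist potency measured as restoring cAMP signal that NPY suppresses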
T7 sequence (P49146 whole entry): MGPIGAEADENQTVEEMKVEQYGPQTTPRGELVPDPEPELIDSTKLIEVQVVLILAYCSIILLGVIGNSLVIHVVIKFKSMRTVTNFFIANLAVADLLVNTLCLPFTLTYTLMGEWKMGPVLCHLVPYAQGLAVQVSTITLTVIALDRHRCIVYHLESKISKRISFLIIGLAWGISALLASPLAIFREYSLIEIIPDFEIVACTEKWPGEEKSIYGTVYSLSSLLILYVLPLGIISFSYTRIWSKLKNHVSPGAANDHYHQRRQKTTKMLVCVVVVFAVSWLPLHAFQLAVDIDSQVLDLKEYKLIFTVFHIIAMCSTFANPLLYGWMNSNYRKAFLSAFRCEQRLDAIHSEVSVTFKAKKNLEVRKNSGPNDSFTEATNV

[16] = target: T8, Neuropeptide Y receptor type 1 (Homo sapiens, UniProt P25929); format: functional;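 note: HEK293 cells with a CNG channel challenged with NPY then isoproterenol; potency as antagonist that reverses NPY suppression of cAMP signal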
T8 sequence (P25929 whole entry): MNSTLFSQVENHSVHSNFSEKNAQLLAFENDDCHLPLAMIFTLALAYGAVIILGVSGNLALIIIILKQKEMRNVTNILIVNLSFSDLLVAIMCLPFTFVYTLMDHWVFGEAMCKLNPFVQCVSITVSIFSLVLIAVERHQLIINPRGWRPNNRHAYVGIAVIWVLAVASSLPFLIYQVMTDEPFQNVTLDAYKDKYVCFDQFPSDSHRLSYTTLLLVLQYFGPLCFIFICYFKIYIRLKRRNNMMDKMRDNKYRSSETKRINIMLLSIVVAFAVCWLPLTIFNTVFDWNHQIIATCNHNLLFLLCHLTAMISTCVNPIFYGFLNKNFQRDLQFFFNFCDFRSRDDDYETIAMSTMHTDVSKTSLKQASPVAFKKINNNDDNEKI

Sequence of Muscarinic acetylcholine receptor M3 (P20309 whole entry): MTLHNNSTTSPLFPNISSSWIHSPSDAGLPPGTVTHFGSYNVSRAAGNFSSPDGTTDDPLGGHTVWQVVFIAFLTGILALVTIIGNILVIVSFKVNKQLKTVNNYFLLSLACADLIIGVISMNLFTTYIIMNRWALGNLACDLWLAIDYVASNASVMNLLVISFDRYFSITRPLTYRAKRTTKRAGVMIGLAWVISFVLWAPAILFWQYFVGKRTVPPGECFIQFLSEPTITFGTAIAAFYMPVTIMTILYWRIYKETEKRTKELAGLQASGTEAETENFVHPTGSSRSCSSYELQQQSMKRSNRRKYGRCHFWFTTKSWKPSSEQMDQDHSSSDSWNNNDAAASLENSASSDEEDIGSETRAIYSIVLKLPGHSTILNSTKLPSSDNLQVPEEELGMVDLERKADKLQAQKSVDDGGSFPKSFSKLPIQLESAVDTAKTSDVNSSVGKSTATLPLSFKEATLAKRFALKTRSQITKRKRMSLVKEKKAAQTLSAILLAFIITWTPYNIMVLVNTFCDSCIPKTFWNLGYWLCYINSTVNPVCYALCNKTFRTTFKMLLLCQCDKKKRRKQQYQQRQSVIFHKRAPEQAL

Cn1cc(-c2ccc(CN3C(=O)C(=O)c4ccccc43)cc2)cn1
EC50 [1]: 2.71 µM (active)
EC50 [2]: 2.42 µM (active)
EC50 [3]: 2.71 µM (active)

COc1ccc(N2CCC(CNC(=O)Nc3ccccc3)C2)cc1 (stereo unspecified)
EC50 [4]: > 79.4 µM (not active)
IC50 [5]: > 50 µM (not active)
EC50 [6]: > 79.4 µM (not active)
IC50 [7]: 2.58 µM (active)
IC50 (Large T antigen): 10.6 µM (active)
EC50 [8]: > 79.4 µM (not active)

CCN(CC)c1ccc(NC(=O)Nc2ccc(C(C)=O)cc2)cc1
IC50 (NADPH oxidase 1): 0.252 µM (active)
IC50 [7]: 4.48 µM (not active)

CC(=O)Nc1ccc(S(=O)(=O)N2CCN(Cc3nc(O)c4c(C)c(C)sc4n3)CC2)cc1
IC50 [9]: > 148 µM (not active)
IC50 [10]: > 111 µM (not active)

Cc1ccc(CN(Cc2cc3cc(C)ccc3[nH]c2=O)C(=O)N2CCOCC2)cc1
EC50 (Estrogen receptor): 12.6 µM (not active)

O=C1NC(=O)N(Cc2ccc(F)cc2)C(=O)/C1=C/NNC(=O)c1ccccc1O
AC50 [11]: 6.55 µM (active)
EC50 (Protein RecA): 21.9 µM (active)
EC50 [12]: 9.33 µM (active)
IC50 [13]: > 100 µM (active)
EC50 [14]: 10.1 µM (active)

CCCCC(=O)N/N=C/c1ccc(N2CCOCC2)c([N+](=O)[O-])c1
IC50 [15]: 16.3 µM (not active)
IC50 [16]: 26.7 µM (not active)
